Measurements: patent US20230405007A1, “COMPOUND FOR USE IN AND METHODS OF TREATMENT OF FIBROTIC DISEASES” (Galapagos NV, priority 2020, published 2023)

Test system: subjects with idiopathic pulmonary fibrosis (IPF)
Experiment: Phase II randomized, double-blind, placebo-controlled IPF clinical study: monitoring of adverse events (SAEs, TEAEs)
Type: in vivo, human
Settings: for Subjects with Serious TEAE / Subjects with TEAE leading to treatment discontinuation (LD): 100 mg orally once daily, 26 weeks
Text: The study of the current example was a randomized, double-blind, parallel group, placebo-controlled, multicenter, Phase II study to evaluate the efficacy, safety and tolerability of Compound 1 in subjects with idiopathic pulmonary fibrosis (IPF). The primary objective of this study was to evaluate the efficacy of Compound 1 treatment in subjects with IPF on pulmonary function as evaluated by FVC compared to placebo over 26 weeks.
The study provided for 2 types of interventions: • Drug: Compound 1—100 mg administered orally once daily as 2 capsules of 50 mg with or without food • Drug: Compound 1 placebo—administered orally once daily as 2 capsules with or without food
Study participants were randomized over 2 study arms: • 1. Experimental: Compound 1: Compound 1 100 mg, for 26 weeks • 2. Placebo Comparator: Placebo: Compound 1 placebo for 26 weeks
To be eligible, the subjects met the following criteria: • Males or females of non-child-bearing potential, aged ≥40 years. • A diagnosis of IPF within 5 years prior to the screening visit as per American Thoracic Society (ATS)/European Respiratory Society (ERS)/Japanese Respiratory Society (JRS)/Latin American Thoracic Association (ALAT) guidelines. • Meeting all of the following criteria at screening and during the screening period: • FVC≥50% predicted of normal • Disease progression in the last 9 months prior to the screening period and at screening, defined as at least one prescreening FVC value and screening value with a decline of FVC (% predicted or mL), at the investigator's discretion • Diffusing capacity for the lungs for carbon monoxide (DLCO)≥30% predicted of normal (corrected for hemoglobin) • Ratio of forced expiratory volume in one second (FEV1) to FVC≥0.70 • In a stable condition and suitable for study participation based on the results of a medical history, physical examination, vital signs, 12-lead ECG, and laboratory evaluation. Stable condition is based on the clinical judgment of the investigator, co-morbidities should be treated according to the local applicable guidelines. Concomitant medication for comorbidities should be stabilized from 4 weeks before screening and during the screening period (stable defined as no change of dose or regimen). • Estimated minimum life expectancy of 12 months for non-IPF related disease in the opinion of the investigator. • Male subjects with female partners of child bearing potential are willing to comply with the contraceptive methods described in the respective protocol prior to the first dose of the IMP, during the clinical study, and for at least 12 weeks after the last dose of the IMP. • Able to walk at least 150 meters during the 6MWT at screening; without having a contraindication to perform the 6MWT. • Able to understand the importance of adherence, and willing to comply to study treatment, study procedures and requirements as per study protocol, including the concomitant medication restrictions. […]

[1] = Summary All (N = 68, both arms)
[2] = background therapy Nintedanib (N = 24, both arms)
[3] = background therapy None (N = 25, both arms)
[4] = background therapy Pirfenidone (N = 19, both arms)

O=c1nc(OC[C@@H]2COCCO2)cc2n1CCc1cc(C#CC3CC3)ccc1-2 [GLPG1205, 9-Cyclopropylethynyl-2-((S)-1-[1,4]dioxan-2-ylmethoxy)-6,7-dihydro-pyrimido[6,1-a]iso quinolin-4-one]
Subjects with Serious TEAE [1]: 9 n | Subjects with TEAE leading to treatment discontinuation (LD) [1]: 10 n | Subjects with Serious TEAE [2]: 7 n | Subjects with TEAE leading to treatment discontinuation (LD) [2]: 6 n | Subjects with Serious TEAE [3]: 2 n | Subjects with TEAE leading to treatment discontinuation (LD) [3]: 2 n | Subjects with Serious TEAE [4]: 0 n | Subjects with TEAE leading to treatment discontinuation (LD) [4]: 2 n | serious adverse events (SAEs) and/or treatment emergent adverse events (TEAEs) (administered in combination with or alongside nintedanib): increased
